Experimental data reported in patent US9657057B2, “Dipeptide and tripeptide epoxy ketone protease inhibitors” (Onyx Therapeutics, Inc., priority 2013, dated 2017).
≈ marks a conversion by molar mass, not a printed value.

Legend:
β5 = target: T1, β5 (Homo sapiens, UniProt P20618+P28074); assay: ProCISE proteasome subunit assay, β5; type: biochemical; conditions: MOLT4 lysate Hu 1 h
T1 construct: endogenous in cells; host or cells: MOLT-4
Description: (§1) This assay was used to assess the inhibitory activity against each of LMP2, LMP7, MECL1, β1, β2, and β5. Briefly, test compounds were serially diluted in DMSO at 100× concentration, then diluted to 10× in aqueous hypotonic lysis buffer. Lysate from the human acute lymphoblastic leukemia cell line, MOLT-4, was treated for 1 hour at 25° C. with compound at a final 1× concentration. […] Following this, lysate was denatured in guanidine hydrochloride, and subunits bound to probe were isolated with streptavidin-conjugated sepharose beads. Individual subunits were probed with subunit-specific primary antibodies, followed by HRP-conjugated secondary antibodies. A chemiluminescent substrate was used to generate signal associated with HRP binding, which was detected on a plate reader. Luminescent signal was normalized to protein content, then, percent activity calculated relative to DMSO-treated controls to generate IC50 curves.

LMP7 = target: T2, LMP7 (Homo sapiens, UniProt P20618+P28062); assay: ProCISE proteasome subunit assay, LMP7; type: biochemical; conditions: MOLT4 lysate Hu 1 h
T2 construct: endogenous in cells; host or cells: MOLT-4
Description: as §1

Solubility pH 7 = type: physicochemical; conditions: pH 7, aqueous buffer

IC50 (β5) [nM]	IC50 (LMP7) [nM]	solubility (Solubility pH 7) [µg/mL]	Compound
1100	68.7	0.3 (≈ 0.491 µM)	CC1=C(C(=O)N[C@H](C)C(=O)N[C@@H](Cc2c[nH]c3ccccc23)C(=O)N[C@@H](CC2CCCC2)C(=O)[C@@]2(C)CO2)Cc2ccccc21 [Compound C-2047, N—((R)-1-(((S)-1-(((S)-3-cyclopentyl-1-((R)-2-methyloxiran-2-yl)-1-oxopropan-2-yl)amino)-3-(1H-indol-3-yl)-1-oxopropan-2-yl)amino)-1-oxopropan-2-yl)-3-methyl-1H-indene-2-carboxamide]
–	–	26.6 (≈ 41.7 µM)	COc1ccc(C[C@H](NC(=O)[C@H](C)NC(=O)Cc2cnc(N3CCCC3)s2)C(=O)N[C@@H](CC2=CCCC2)C(=O)[C@@]2(C)CO2)cc1 [Compound C-2069, (S)—N—((S)-3-(cyclopent-1-en-1-yl)-1-((R)-2-methyloxiran-2-yl)-1-oxopropan-2-yl)-3-(4-methoxyphenyl)-2-((S)-2-(2-(2-(pyrrolidin-1-yl)thiazol-5-yl)acetamido)propanamido)propanamide]
–	–	54.6 (≈ 87.5 µM)	COc1ccc(C[C@H](NC(=O)[C@H](C)NC(=O)Cc2cnc(N3CCC3)s2)C(=O)N[C@@H](CC2=CCCC2)C(=O)[C@@]2(C)CO2)cc1 [Compound C-2068, (S)-2-((S)-2-(2-(2-(azetidin-1-yl)thiazol-5-yl)acetamido)propanamido)-N—((S)-3-(cyclopent-1-en-1-yl)-1-((R)-2-methyloxiran-2-yl)-1-oxopropan-2-yl)-3-(4-methoxyphenyl)propanamide]
–	–	21.4 (≈ 36.3 µM)	COc1ccc(C[C@H](NC(=O)[C@@H](C)NC(=O)c2ccc3cn[nH]c3c2)C(=O)N[C@@H](CC2CCCC2)C(=O)[C@@]2(C)CO2)cc1 [Compound C-2063, N—((R)-1-(((S)-1-(((S)-3-cyclopentyl-1-((R)-2-methyloxiran-2-yl)-1-oxopropan-2-yl)amino)-3-(4-methoxyphenyl)-1-oxopropan-2-yl)amino)-1-oxopropan-2-yl)-1H-indazole-6-carboxamide]
–	–	1.9 (≈ 3.07 µM)	CC1=C(C(=O)N[C@@H](C)C(=O)N[C@@H](Cc2c[nH]c3ccccc23)C(=O)N[C@@H](Cc2ccccc2)C(=O)[C@@]2(C)CO2)Cc2ccccc21 [Compound C-2004]

Second part, the compound before the results:

Compound	IC50 (β5) [nM]	IC50 (LMP7) [nM]	solubility (Solubility pH 7) [µg/mL]
COc1ccc(C[C@H](NC(=O)[C@H]2CC(=O)N2)C(=O)N[C@@H](Cc2ccccc2)C(=O)[C@@]2(C)CO2)cc1 [Compound C-3003, (R)—N—((S)-3-(4-methoxyphenyl)-1-(((S)-1-((R)-2-methyloxiran-2-yl)-1-oxo-3-phenylpropan-2-yl)amino)-1-oxopropan-2-yl)-4-oxoazetidine-2-carboxamide]	1220	513	1200 (≈ 2500 µM)
COc1ccc(C[C@H](NC(=O)[C@@H]2CC(=O)N2)C(=O)N[C@@H](Cc2ccccc2)C(=O)[C@@]2(C)CO2)cc1 [Compound C-3002, (S)—N—((S)-3-(4-methoxyphenyl)-1-(((S)-1-((R)-2-methyloxiran-2-yl)-1-oxo-3-phenylpropan-2-yl)amino)-1-oxopropan-2-yl)-4-oxoazetidine-2-carboxamide]	1930	934	1460 (≈ 3050 µM)
COc1ccc(C[C@H](NC(=O)[C@@H](CC(=O)OC(C)(C)C)NC(=O)OCc2ccccc2)C(=O)N[C@@H](Cc2ccccc2)C(=O)[C@@]2(C)CO2)cc1 [Compound C-2016, (R)-tert-Butyl 3-(((benzyloxy)carbonyl)amino)-4-(((S)-3-(4-methoxyphenyl)-1-(((S)-1-((R)-2-methyloxiran-2-yl)-1-oxo-3-phenylpropan-2-yl)amino)-1-oxopropan-2-yl)amino)-4-oxobutanoate]	279	69.7	–
COc1ccc(C[C@H](NC(=O)[C@@H](CC(=O)O)NC(=O)OCc2ccccc2)C(=O)N[C@@H](Cc2ccccc2)C(=O)[C@@]2(C)CO2)cc1 [Compound C-2017, (R)-3-(((Benzyloxy)carbonyl)amino)-4-(((S)-3-(4-methoxyphenyl)-1-(((S)-1-((R)-2-methyloxiran-2-yl)-1-oxo-3-phenylpropan-2-yl)amino)-1-oxopropan-2-yl)amino)-4-oxobutanoic acid]	129	37.2	–
